No end group written: not given here. *: point of attachment. FITC = O=C1OC2(c3ccc(O)cc3Oc3cc(O)ccc32)c2ccc(NC(=S)*)cc21
Legend:
NTD of CcLon (aa. 1-206) = molecular target: T1, NTD of CcLon (aa. 1-206) (Caulobacter vibrioides, UniProt P0CAW0); assay: Fluorescence polarization, FITC-labeled degron peptides vs NTD; format: binding, C. crescentus; conditions: FP assay
T1 sequence (P0CAW0 1-206): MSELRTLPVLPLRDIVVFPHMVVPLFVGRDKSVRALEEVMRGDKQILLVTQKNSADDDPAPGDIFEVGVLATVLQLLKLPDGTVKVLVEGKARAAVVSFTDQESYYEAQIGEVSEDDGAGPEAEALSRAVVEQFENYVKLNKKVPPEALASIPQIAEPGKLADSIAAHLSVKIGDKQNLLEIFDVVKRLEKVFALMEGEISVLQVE

LarA-NTD complex = assay: Fluorescence polarization, FITC-labeled degron peptides vs LarA-NTD complex; format: binding, C. crescentus; conditions: FP assay
[1] = molecular target: FITC-labeled peptide derived from the wild-type C-terminal sequence of SciP (C. crescentus); assay: fluorescence polarisation

| Substance | FP binding to NTD (in words) (NTD of CcLon (aa. 1-206)) | FP binding to LarA-NTD complex (in words) (LarA-NTD complex) | Kd [1] |
| --- | --- | --- | --- |
| {FITC}-HEAAPASAH [pep-LarA-mut] | failed to bind | failed to bind |  |
| {FITC}-QSADRHGAAGARTTRAQQYR [pep-SciP-mut] | failed to bind | failed to bind |  |
| LarA-NTD complex (from UniProt P0CAW0 1-206) |  |  | 413 µM |
| {FITC}-HELAPVSVH [pep-LarA-amidated] | no binding was observed | comparable to that of pep-LarA |  |
